ChEMBL document CHEMBL5370617, “Identification of a 1,2,4-Oxadiazole with Potent and Specific Activity against Clostridioides difficile, the Causative Bacterium of C. difficile Infection, an Urgent Public Health Threat” (2023)
Values after ≈ are worked out from the molar mass of the structure shown.

Legend:
Type in all cases: functional
Settings in all cases: time 24-48 hrs
[1] = system: Clostridioides difficile; assay: Antibacterial activity against Clostridioides difficile assessed as bacterial growth inhibition measured at 24 to 48 hrs
[2] = system: Clostridioides difficile; assay: Antibacterial activity against Clostridioides difficile ATCC 43255 assessed as bacterial growth inhibition measured at 24 to 48 hrs
[3] = system: Clostridioides difficile; assay: Antibacterial activity against multi drug resistant Clostridioides difficile assessed as bacterial growth inhibition measured at 24 to 48 hrs
[4] = system: Clostridioides difficile; assay: Antibacterial activity against drug sensitive Clostridioides difficile assessed as bacterial growth inhibition measured at 24 to 48 hrs

SMILES	MIC [1] [µg/mL]	MIC [2] [µg/mL]	other results
Cn1c(-c2nc(-c3ccc(OC4CCCC4)cc3)no2)cnc1[N+](=O)[O-]	32 (≈ 90.1 µM)	–	–
Cc1ncc([N+](=O)[O-])n1CCO [METRONIDAZOLE]	0.25 (≈ 1.46 µM)	–	–
Oc1ccc(-c2nc(-c3ccc(OC4CCCC4)cc3)no2)cc1	–	2 (≈ 6.2 µM)	–
O=[N+]([O-])c1c[nH]c(-c2nc(-c3ccc(OC4CCCC4)cc3)no2)n1	–	0.25 (≈ 0.732 µM)	MIC90 [3]: 1 µg/mL (≈ 2.93 µM); MIC90 [4]: 1 µg/mL (≈ 2.93 µM)
O=[N+]([O-])c1cn(CCO)c(-c2nc(-c3ccc(OC4CCCC4)cc3)no2)n1	> 128	–	–
FC(F)(F)c1ccc(Oc2ccc(-c3noc(-c4ccc5[nH]ccc5c4)n3)cc2)cc1	–	4 (≈ 9.49 µM)	–
